PubChem BioAssay (NCI)
“And” between values parts separate entries of the source, which are not always exact repeats. Identical values can stand only once.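 Cultured in 96-well plates, cells were exposed to test compound for 48 hours across five concentrations. GI50 marks 50% less growth. TGI is the concentration that stops growth completely.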

Legend:
Assay in all cases: DTP human tumour cell line panel, 48 h
UACC-62 melanoma = system: UACC-62 melanoma
786-0 renal = system: 786-0 renal
TK-10 renal = system: TK-10 renal
SK-OV-3 ovarian = system: SK-OV-3 ovarian
RPMI-8226 leukemia = system: RPMI-8226 leukemia
MALME-3M melanoma = system: MALME-3M melanoma
HCC-2998 colon = system: HCC-2998 colon
OVCAR-4 ovarian = system: OVCAR-4 ovarian
HOP-92 NSCLC = system: HOP-92 NSCLC
SF-268 CNS = system: SF-268 CNS

Question: How did the GI50 (UACC-62 melanoma) turn out when CCC(C)CC(C)C(=O)c1c(O)ccn(O)c1=O (stereo unspecified) was run?
Answer: 2.27 µM

Question: What about the TGI (UACC-62 melanoma) of the same compound?
Answer: 6.74 µM

Question: And the GI50 (786-0 renal)?
Answer: 3.65 µM

Question: What about the TGI (786-0 renal) of the same compound?
Answer: > 100 µM

Question: What about the GI50 (TK-10 renal) of the same compound?
Answer: 17.8 µM

Question: And the TGI (TK-10 renal)?
Answer: > 100 µM

Question: And the GI50 (SK-OV-3 ovarian)?
Answer: 6.2 µM

Question: And the TGI (SK-OV-3 ovarian)?
Answer: > 100 µM

Question: What about the GI50 (RPMI-8226 leukemia) of the same compound?
Answer: 0.901 µM

Question: And the TGI (RPMI-8226 leukemia)?
Answer: 36.8 µM

Question: And the GI50 (MALME-3M melanoma)?
Answer: 1.44 µM

Question: And the TGI (MALME-3M melanoma)?
Answer: 10.1 µM

Question: And the GI50 (HCC-2998 colon)?
Answer: 6 µM

Question: What about the TGI (HCC-2998 colon) of the same compound?
Answer: > 100 µM

Question: What about the GI50 (OVCAR-4 ovarian) of the same compound?
Answer: 0.561 µM

Question: What about the TGI (OVCAR-4 ovarian) of the same compound?
Answer: > 100 µM

Question: What about the GI50 (HOP-92 NSCLC) of the same compound?
Answer: 0.686 µM

Question: What about the TGI (HOP-92 NSCLC) of the same compound?
Answer: 33.7 µM

Question: What about the GI50 (SF-268 CNS) of the same compound?
Answer: 1.29 µM

Question: And the TGI (SF-268 CNS)?
Answer: 45.3 µM

Question: For FC(F)(F)c1cc(-c2ncn(/C=C\c3nnco3)n2)cc(C(F)(F)F)c1, which GI50 (UACC-62 melanoma) is on record?
Answer: 0.189 µM

Question: And the TGI (UACC-62 melanoma)?
Answer: 6.76 µM

Question: And the GI50 (786-0 renal)?
Answer: 0.0869 µM

Question: What about the TGI (786-0 renal) of the same compound?
Answer: > 32.3 µM

Question: What about the GI50 (TK-10 renal) of the same compound?
Answer: 0.0803 µM

Question: And the TGI (TK-10 renal)?
Answer: 12.5 µM

Question: What about the GI50 (SK-OV-3 ovarian) of the same compound?
Answer: 0.223 µM

Question: And the TGI (SK-OV-3 ovarian)?
Answer: > 67.3 µM

Question: What about the GI50 (RPMI-8226 leukemia) of the same compound?
Answer: 0.0336 µM

Question: And the TGI (RPMI-8226 leukemia)?
Answer: 15.6 µM

Question: What about the GI50 (MALME-3M melanoma) of the same compound?
Answer: 0.102 µM

Question: What about the TGI (MALME-3M melanoma) of the same compound?
Answer: 0.734 µM

Question: And the GI50 (HCC-2998 colon)?
Answer: 0.317 µM

Question: And the TGI (HCC-2998 colon)?
Answer: 11.1 µM

Question: What about the GI50 (OVCAR-4 ovarian) of the same compound?
Answer: 0.0442 µM

Question: What about the GI50 (HOP-92 NSCLC) of the same compound?
Answer: 0.0391 µM

Question: What about the TGI (HOP-92 NSCLC) of the same compound?
Answer: 4.87 µM

Question: And the GI50 (SF-268 CNS)?
Answer: 0.0462 µM

Question: And the TGI (SF-268 CNS)?
Answer: 10.1 µM

Question: Which TGI (UACC-62 melanoma) does the source give for NC(CO)c1ccc(OCc2ccccc2)cc1 (stereo unspecified) here?
Answer: > 100 µM

Question: What about the TGI (786-0 renal) of the same compound?
Answer: > 100 µM

Question: And the TGI (TK-10 renal)?
Answer: > 100 µM

Question: What about the TGI (SK-OV-3 ovarian) of the same compound?
Answer: > 100 µM

Question: What about the TGI (RPMI-8226 leukemia) of the same compound?
Answer: > 100 µM

Question: What about the TGI (MALME-3M melanoma) of the same compound?
Answer: > 100 µM

Question: What about the TGI (HCC-2998 colon) of the same compound?
Answer: > 100 µM

Question: What about the TGI (OVCAR-4 ovarian) of the same compound?
Answer: > 100 µM

Question: What about the TGI (HOP-92 NSCLC) of the same compound?
Answer: 98.1 µM

Question: What about the TGI (SF-268 CNS) of the same compound?
Answer: > 100 µM

Question: What does the source list for CCOC(=O)Nc1ccc2c(c1)N(C(=O)CCN(CC)CC)c1ccccc1S2?
Answer: GI50 (UACC-62 melanoma): 46.7 µM; TGI (UACC-62 melanoma): 52.8 µM and 112 µM; TGI (786-0 renal): 69.8 µM; TGI (TK-10 renal): 76.6 µM; GI50 (SK-OV-3 ovarian): 106 µM; TGI (SK-OV-3 ovarian): 70.7 µM and 183 µM; GI50 (RPMI-8226 leukemia): 13 µM; TGI (RPMI-8226 leukemia): 51 µM and 47.5 µM; GI50 (MALME-3M melanoma): 29.1 µM; TGI (MALME-3M melanoma): 34.4 µM and 70.3 µM; TGI (HCC-2998 colon): 32.8 µM and 75.7 µM; GI50 (OVCAR-4 ovarian): 84 µM; TGI (OVCAR-4 ovarian): 234 µM; GI50 (HOP-92 NSCLC): 14.2 µM; TGI (HOP-92 NSCLC): 67.8 µM and 73.5 µM; GI50 (SF-268 CNS): 55 µM; TGI (SF-268 CNS): > 74.6 µM and 128 µM
